Consider 7 molecules from patent publication US8722043B2, “Induction of p53 expression by neutralization of neuropilin-2 for the treatment of cancers” (Diaclone, priority 2008, dated 2014).

One experiment relates to mutant p53 proteins. The following applies: model of human xenograft; review Levesque & Eastman 2007; cited from earlier work. (A xenograft is tissue or cells of one species grown in another, often human tumour cells in immunodeficient mice.)
For experiment [1], the system named is Colo320 human tumour cells. Description: Tumour colony formation in semi-solid agar medium. It counts as cell-based. The conditions noted are these: for number of colonies formed: 50 μg/ml, 10 days post-seeding (FIG. 9). The protocol:
In order to determine whether the ITAC-B1 antibody has a neutralizing activity on the formation of tumour colonies in vitro, tests for tumour colony formation in vitro in a semi-solid agar medium containing agar were carried out. The principle of this test is based on bringing Colo320 human tumour cells (which express NRP-2 at their membrane surface and, furthermore, naturally secrete VEGF into the culture medium) into contact with the ITAC-B1 antibody. 4000 Colo320 cells are seeded into each well of a 24-well plate, in a semi-solid medium containing agar, and in the presence of 10 μg/ml of anti-NRP-2 antibody ITAC-B1. By way of comparison, the same test is carried out in the presence of cytotoxic agents with a proven action, i.e. 5-fluorouracil (5-FU), used at a rate of 50 μg/ml, or of Avastin® (bevacizumab: humanized monoclonal antibodies directed against VEGF), used at a rate of 50 μg/ml, or in the presence of a control isotype antibody (mouse IgG1 monoclonal antibody (BZ1)), used at a rate of 10 μg/ml.
At 10 days post-seeding, the colonies were counted under an optical microscope.
Since neuropilin-2 is a coreceptor for VEGF, it was verified whether the activity of ITAC-B1 was dependent on an interaction between NRP-2 and the VEGF produced by the Colo320 cells. With this aim, the tests for Colo320-cell colony formation were carried out under the conditions described above, and in the presence of ITAC-B1 antibody (10 μg/ml), of bevacizumab (50 μg/ml) or of control antibody (10 μg/ml), used separately or in combination.
The results are given in FIG. 10: the y-axis represents the number of colonies formed; on the x-axis, the antibodies present in the culture medium are indicated by a “+”.

For the next experiment, the system named is HT29-NRP-2 tumour cells. Nature of the experiment: HT29-NRP-2 subcutaneous xenograft, tumour volume. It counts as in vivo, immunodeficient mice. The following applies: group C: 5-FU intraperitoneally 20 mg/kg D0 to D4, 100 mg/kg at D9. The protocol:
HT29-NRP-2 tumour cells were injected subcutaneously into 20 immunodeficient mice, at a rate of 1×10^6 cells per mouse, in the right flank. 10 days after the injection, the tumours measure approximately 5 mm×5 mm.
In accordance with the protocol described above, group B was inoculated with ITAC-B1 at D0 (12 mg/kg), D3 (6 mg/kg), D7 (12 mg/kg) and D10 (6 mg/kg). Group C was inoculated with 20 mg/kg of 5-FU from D0 to D4 and then with 100 mg/kg at D9. Group D was inoculated with ITAC-B1 at D0 (12 mg/kg), D3 (6 mg/kg), D7 (12 mg/kg) and D10 (6 mg/kg) and with 20 mg/kg of 5-FU from D0 to D4 and 100 mg/kg of 5-FU at D9.
The tumours were measured twice a week, and the volume of the tumours was calculated with the formula: V (mm^3)=d^2×D/2.
FIG. 21 represents the tumour volume as a function of time. Group A (PBS control) is represented by (⋄), group B (mice inoculated with the ITAC-B1 antibody) is represented by (▪), group C (mice inoculated with 5-FU) is represented by (Δ), and group D (mice inoculated both with the ITAC-B1 antibody and with 5-FU) is represented by (x).

The next experiment deals with Colo320siRNA-ctrl cells. Nature of the experiment: Annexin V-APC apoptosis test with or without PFTα pretreatment. The following applies: PFTα 27 μM, 18 h pretreatment. It counts as cell-based, human. The protocol: In order to correlate the induction of apoptosis with p53 expression, the Colo320siRNA-ctrl cells were pretreated for 18 h with a chemical inhibitor of p53, pifithrin-α, at a dose of 27 μM (PFTα, Sigma). After pretreatment, the cells are washed twice with 3 ml of PBS and placed in a 24-well plate, at a rate of 100 000 cells/well in 1 ml of RPMI-10% FCS. Non-pretreated cells are placed under the same conditions. The cells are incubated for 5 h with a control murine isotype antibody (BZ1) or ITAC-B1 at 20 μg/ml and the apoptosis is measured as described above.
FIG. 14 represents the results of the apoptosis-induction experiments carried out with the Colo320siRNA-ctrl cells pretreated or not pretreated with PFTα. The percentage of cells labelled with Annexin V-APC is indicated on the y-axis, the cell culture conditions are indicated on the x-axis (control consisting of medium, control consisting of medium supplemented with a control isotype antibody -BZ1-, test consisting of medium supplemented with the ITAC-B1 antibody). The results of the tests carried out with cells pretreated with PFTα are represented in light grey, those of the tests carried out with non-pretreated cells are represented in dark grey.

A further experiment has as its system HT29-NRP-2 cells. Nature of the experiment: Annexin V-APC apoptosis test. The following applies: selection criterion of the hybridoma clones. It counts as cell-based, human. The protocol:
In order to determine the ability of the ITAC-B1 antibody to induce apoptosis of tumour cells expressing NRP-2, an in vitro Annexin V-APC apoptosis test was carried out (BD Pharmingen, San Diego, Calif.). This test is based on the externalization of phosphatidylserin by apoptotic cells and on the binding of Annexin V-APC to this molecule.
1 ml of DMEM medium containing 10% of inactivated FCS and 100 000 HT29-NRP-2 cells or 100 000 HT29ctrl cells were seeded, per well, into a 24-well Nunc plate. […] In parallel, “cells alone” controls were carried out, as were negative controls (anti-human mouse IgG1 antibody (BZ1) at the same concentrations as the ITAC-B1 antibody).
[…] When the cells began to detach, 500 μl of DMEM medium-10% FCS were added per well. The cells were then centrifuged, washed twice in PBS, and then taken up in 300 μl of 1× binding buffer (provided in the kit), and then 5 μl of Annexin V-APC were subsequently added to 100 μl of this solution.
The panels of FIG. 13 are point-cloud representations of the flow cytometry analysis. For each of the panels, the fluorescence intensity (corresponding to the labelling of the cells with Annexin V-APC) is represented on the x-axis. The y-axis indicates the granulosity of the cells (Side Scatter or SSC). […] The percentage of cells labelled with Annexin V-APC (corresponding to the percentage of cells having entered into apoptosis) is indicated at the bottom-right of each panel.
The apoptosis induced was then measured by labelling with Annexin V-APC as described above.
The panels of FIG. 15 are point-cloud representations of the flow cytometry analysis. For each of the panels, the fluorescence intensity (corresponding to the labelling of the cells with Annexin V-APC) is represented on the x-axis. The y-axis indicates the granulosity (side scatter) of the cells. The conditions of treatment with the antibodies and the Avastin® are indicated to the left of the panels. The percentage of cells labelled with the Annexin V-APC, corresponding to the percentage of cells having entered into apoptosis, is indicated at the top-right of each panel.

The next experiment deals with p53 protein. Nature of the experiment: Western blotting of p53 expression after antibody treatment. It counts as cell-based, human. The conditions noted are these: HT29-NRP-2 and Colo320^siRNA-ctrl; 20 ng/ml, 48 hours. How it is done: The HT29, HT29-NRP-2, Colo320^siRNA-ctrl tumour cells and Colo320^siRNA-NRP-2 were exposed to 20 ng/ml of ITAC-B1 antibody or of control antibody, and cultured for 48 hours. After lysis of the cell lines, migration of the protein pellets obtained on a 10% polyacrylamide gel (10 μg of protein per well) and then transfer onto a PVDF membrane, the membrane was incubated overnight with the anti-p53 primary antibody (BD Biosciences, mouse anti-human p53) diluted to 1/500. After washing in TBS/0.1% Tween20, the membranes were incubated for 1 hour with an anti-mouse IgG-HRP secondary antibody diluted to 1/6000. The results are represented in FIG. 19.

With `O=C1C2CCN(CC2)C1(CO)CO` [PRIMA-1], the tumour growth entry in the experiment on mutant p53 proteins was “successfully used to inhibit tumour growth”.
Regarding `COc1ccc(/C=C/c2nc(NCCCN(C)C)c3ccccc3n2)cc1` [CP-31398], the tumour growth entry in the experiment on mutant p53 proteins is “successfully used to inhibit tumour growth”.
As for bevacizumab [Avastin®], in experiment [1], the “number of colonies formed” value is recorded as “approximately 120”. The “effect on the proliferation of the Colo320 cells (number of colonies)” value in experiment [1] (bevacizumab 50 μg/ml (FIG. 10)) was “very little effect”.
In the case of `O=c1[nH]cc(F)c(=O)[nH]1` [5-FU, 5-fluorouracil, reference compound], in the experiment on HT29-NRP-2 tumour cells, the tumour volume result is “reduction in tumour volume is observed starting from D14”. For the same molecule, the “number of colonies formed” value in experiment [1] was “approximately 40”.
In the case of `Cc1ccc(C(=O)Cn2c3c(sc2=N)CCCC3)cc1` [PFTα, pifithrin-α, reference compound], in the experiment with Colo320siRNA-ctrl cells, the “effect of pretreatment on ITAC-B1-dependent apoptosis” value was “prevents the ITAC-B1-dependent apoptosis”.
For the molecule `CCC(=O)OCN1C(=O)C=CC1=O` [MIRA-1], the tumour growth entry in the experiment on mutant p53 proteins is on record as “successfully used to inhibit tumour growth”.

B1: ITAC-B2: anti-human neuropilin-2 monoclonal antibody, VH SEQ ID No. 6, VL SEQ ID No. 8 (antibody, listed as Mus musculus, V domains shown)
VH: EVQLEESGGGLVKPGGSLKLSCAASGFTFSDYYMYWVRQTPEKRLEWVATISDGGSYTYYPDSIKGRFTISRDNARNNLYLQMSSLKSEDTAMYYCARGGPYRSWFAFWGQGTLVTVSA
VL: DIVITQTPLSLPVSLGDQASISCRSSQSIVYSNGNTYLEWYLQKPGQSPKLLIYKVSNRFSGVPDRFSGSGSGTDFTLKISRVEAEDLGVYYCFQGSHVPPTFGGGTKLEIK
In the case of B1, the “ability to induce apoptosis of tumour cells expressing neuropilin-2 (selection of clones)” value with HT29-NRP-2 cells was “ability to induce apoptosis of tumour cells expressing neuropilin-2”. Also, the “expression of p53 in lines which express NRP-2” value in the experiment with p53 protein was “have the Ability to Induce Expression of the p53 Protein”.
